Five molecules from PubChem BioAssay AID1963840 (Molecular Pharmacology Branch, DTP, NCI, 2024) can be followed below.

Where only a bound is given, the exact number is not on record here.
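Also: spheroids exposed to compounds for seven days.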
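For viability, T/C in this document: 100% = DMSO vehicle control viability.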

In the first test the test system is 695427-040-R-J1-PDC complex spheroid viability. As to the kind of experiment: Anticancer human tumor 695427-040-R-J1-PDC patient-derived colon adenocarcinoma cell line growth inhibition [POLQ]. As to conditions: curve of first compound; second compound 10 µM. The essentials:
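Three-cell-type spheroids modelling solid tumor plus stroma served as the readout system; POL inhibitors were tested individually and in combination, concentration ranges set by clinical Cmax where known.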
As usually defined, the IC50 is the concentration that gives 50% inhibition. As to `CC(C)n1c(=O)n(C)c2cnc3cc(F)c(-c4ccc(OCCCN5CCCCC5)nc4)cc3c21` + Nc1ccc(C#CCN(C(=O)Cc2ncc(C(F)(F)F)cc2C(F)(F)F)c2ccc(F)cc2)nn1, the IC50 is over 10 µM.
The same measure, in the same setting: for `CCc1cc2c(N3CCc4c(cc(Cn5ccnc5)cc4-c4cn(C)nc4C(F)(F)F)C3=O)cc(C)nc2c(OC)n1` + Nc1ccc(C#CCN(C(=O)Cc2ncc(C(F)(F)F)cc2C(F)(F)F)c2ccc(F)cc2)nn1 the value was over 10 µM.
The same measure, in the same setting: for `CCc1cc2c(N3CCc4c(cc(Cn5ccnc5)cc4-c4cn(C)nc4C(F)(F)F)C3=O)ccnc2c(OC)n1` + Nc1ccc(C#CCN(C(=O)Cc2ncc(C(F)(F)F)cc2C(F)(F)F)c2ccc(F)cc2)nn1 the value was over 10 µM; for `COc1cc2cc(C(=O)CCC(=O)O)sc2cc1OC` + Nc1ccc(C#CCN(C(=O)Cc2ncc(C(F)(F)F)cc2C(F)(F)F)c2ccc(F)cc2)nn1, over 10 µM.

Staying with this test, now noted: second compound 0.0316 µM; first compound 0.0316 µM; stronger effect = lower value.
As a reminder, the viability, T/C is the ratio of treated to control. As to `C=CC(=O)N1CCN(c2nc(=O)n(-c3c(C)ccnc3C(C)C)c3nc(-c4c(O)cccc4F)c(F)cc23)C(C)C1` (stereo unspecified) + Nc1ccc(C#CCN(C(=O)Cc2ncc(C(F)(F)F)cc2C(F)(F)F)c2ccc(F)cc2)nn1, the viability, T/C was 108%.
The same measure, in the same setting: for `CC(C)n1c(=O)n(C)c2cnc3cc(F)c(-c4ccc(OCCCN5CCCCC5)nc4)cc3c21` + Nc1ccc(C#CCN(C(=O)Cc2ncc(C(F)(F)F)cc2C(F)(F)F)c2ccc(F)cc2)nn1 the value was 103%; for `CCc1cc2c(N3CCc4c(cc(Cn5ccnc5)cc4-c4cn(C)nc4C(F)(F)F)C3=O)cc(C)nc2c(OC)n1` + Nc1ccc(C#CCN(C(=O)Cc2ncc(C(F)(F)F)cc2C(F)(F)F)c2ccc(F)cc2)nn1, 102%; for `CCc1cc2c(N3CCc4c(cc(Cn5ccnc5)cc4-c4cn(C)nc4C(F)(F)F)C3=O)ccnc2c(OC)n1` + Nc1ccc(C#CCN(C(=O)Cc2ncc(C(F)(F)F)cc2C(F)(F)F)c2ccc(F)cc2)nn1, 102%.
Same read-out and setting: then `COc1cc2cc(C(=O)CCC(=O)O)sc2cc1OC` + Nc1ccc(C#CCN(C(=O)Cc2ncc(C(F)(F)F)cc2C(F)(F)F)c2ccc(F)cc2)nn1, with 111%.

The same test, now with this note: second compound 0.0316 µM; first compound 0.1 µM; stronger effect = lower value.
Turning to `C=CC(=O)N1CCN(c2nc(=O)n(-c3c(C)ccnc3C(C)C)c3nc(-c4c(O)cccc4F)c(F)cc23)C(C)C1` (stereo unspecified) + Nc1ccc(C#CCN(C(=O)Cc2ncc(C(F)(F)F)cc2C(F)(F)F)c2ccc(F)cc2)nn1, the viability, T/C is 104%.
As to `CC(C)n1c(=O)n(C)c2cnc3cc(F)c(-c4ccc(OCCCN5CCCCC5)nc4)cc3c21` + Nc1ccc(C#CCN(C(=O)Cc2ncc(C(F)(F)F)cc2C(F)(F)F)c2ccc(F)cc2)nn1, the viability, T/C was 105%.
On to `CCc1cc2c(N3CCc4c(cc(Cn5ccnc5)cc4-c4cn(C)nc4C(F)(F)F)C3=O)cc(C)nc2c(OC)n1` + Nc1ccc(C#CCN(C(=O)Cc2ncc(C(F)(F)F)cc2C(F)(F)F)c2ccc(F)cc2)nn1, for which the viability, T/C was 106%.
The same measure, in the same setting: for `CCc1cc2c(N3CCc4c(cc(Cn5ccnc5)cc4-c4cn(C)nc4C(F)(F)F)C3=O)ccnc2c(OC)n1` + Nc1ccc(C#CCN(C(=O)Cc2ncc(C(F)(F)F)cc2C(F)(F)F)c2ccc(F)cc2)nn1 the value was 106%.
In the case of `COc1cc2cc(C(=O)CCC(=O)O)sc2cc1OC` + Nc1ccc(C#CCN(C(=O)Cc2ncc(C(F)(F)F)cc2C(F)(F)F)c2ccc(F)cc2)nn1, the viability, T/C is 92%.

The test is the same for the next values; noted with them: second compound 0.0316 µM; first compound 0.316 µM; stronger effect = lower value.
With `C=CC(=O)N1CCN(c2nc(=O)n(-c3c(C)ccnc3C(C)C)c3nc(-c4c(O)cccc4F)c(F)cc23)C(C)C1` (stereo unspecified) + Nc1ccc(C#CCN(C(=O)Cc2ncc(C(F)(F)F)cc2C(F)(F)F)c2ccc(F)cc2)nn1, the viability, T/C was 110%.
As for `CC(C)n1c(=O)n(C)c2cnc3cc(F)c(-c4ccc(OCCCN5CCCCC5)nc4)cc3c21` + Nc1ccc(C#CCN(C(=O)Cc2ncc(C(F)(F)F)cc2C(F)(F)F)c2ccc(F)cc2)nn1, the viability, T/C is 112%.
Consider `CCc1cc2c(N3CCc4c(cc(Cn5ccnc5)cc4-c4cn(C)nc4C(F)(F)F)C3=O)cc(C)nc2c(OC)n1` + Nc1ccc(C#CCN(C(=O)Cc2ncc(C(F)(F)F)cc2C(F)(F)F)c2ccc(F)cc2)nn1, for which the viability, T/C was 107%.
On the same count and under the same terms, for `CCc1cc2c(N3CCc4c(cc(Cn5ccnc5)cc4-c4cn(C)nc4C(F)(F)F)C3=O)ccnc2c(OC)n1` + Nc1ccc(C#CCN(C(=O)Cc2ncc(C(F)(F)F)cc2C(F)(F)F)c2ccc(F)cc2)nn1 the value was 94.6%; for `COc1cc2cc(C(=O)CCC(=O)O)sc2cc1OC` + Nc1ccc(C#CCN(C(=O)Cc2ncc(C(F)(F)F)cc2C(F)(F)F)c2ccc(F)cc2)nn1, 103%.

The same test, now with this note: second compound 0.0316 µM; first compound 1 µM; stronger effect = lower value.
For `C=CC(=O)N1CCN(c2nc(=O)n(-c3c(C)ccnc3C(C)C)c3nc(-c4c(O)cccc4F)c(F)cc23)C(C)C1` (stereo unspecified) + Nc1ccc(C#CCN(C(=O)Cc2ncc(C(F)(F)F)cc2C(F)(F)F)c2ccc(F)cc2)nn1, the viability, T/C was 111%.
Same read-out and setting: for `CC(C)n1c(=O)n(C)c2cnc3cc(F)c(-c4ccc(OCCCN5CCCCC5)nc4)cc3c21` + Nc1ccc(C#CCN(C(=O)Cc2ncc(C(F)(F)F)cc2C(F)(F)F)c2ccc(F)cc2)nn1 the value was 110%; for `CCc1cc2c(N3CCc4c(cc(Cn5ccnc5)cc4-c4cn(C)nc4C(F)(F)F)C3=O)cc(C)nc2c(OC)n1` + Nc1ccc(C#CCN(C(=O)Cc2ncc(C(F)(F)F)cc2C(F)(F)F)c2ccc(F)cc2)nn1, 108%; for `CCc1cc2c(N3CCc4c(cc(Cn5ccnc5)cc4-c4cn(C)nc4C(F)(F)F)C3=O)ccnc2c(OC)n1` + Nc1ccc(C#CCN(C(=O)Cc2ncc(C(F)(F)F)cc2C(F)(F)F)c2ccc(F)cc2)nn1, 95.8%.
With `COc1cc2cc(C(=O)CCC(=O)O)sc2cc1OC` + Nc1ccc(C#CCN(C(=O)Cc2ncc(C(F)(F)F)cc2C(F)(F)F)c2ccc(F)cc2)nn1, the viability, T/C is 115%.

The same test, now with this note: second compound 0.0316 µM; first compound 3.16 µM; stronger effect = lower value.
As to `C=CC(=O)N1CCN(c2nc(=O)n(-c3c(C)ccnc3C(C)C)c3nc(-c4c(O)cccc4F)c(F)cc23)C(C)C1` (stereo unspecified) + Nc1ccc(C#CCN(C(=O)Cc2ncc(C(F)(F)F)cc2C(F)(F)F)c2ccc(F)cc2)nn1, the viability, T/C is 110%.
`CC(C)n1c(=O)n(C)c2cnc3cc(F)c(-c4ccc(OCCCN5CCCCC5)nc4)cc3c21` + Nc1ccc(C#CCN(C(=O)Cc2ncc(C(F)(F)F)cc2C(F)(F)F)c2ccc(F)cc2)nn1: the viability, T/C was 100%.
